Reference: patent US5196447A, “Neristatin 1” (Arizona Board of Regents, a body Corporate of The State of …, priority 1991, dated 1993)
≈ marks a conversion by molar mass, not a printed value.

Columns and labels:
P388 cell line = assay: Activity against the P388 lymphocytic leukemia cell line; assay type: cell-based, murine
[1] = Stability in recrystallization attempts / various solvents; assay type: physicochemical
protein kinase C [2] = assay: Competition for [26-3H] bryostatin 4 binding to protein kinase C (phosphatidylserine/TRITON X-100 mixed micelles)
protein kinase C [3] = assay: Usual phorbol ester binding conditions using reconstitution of protein kinase C in phosphatidylserine

COC(=O)C=C1CC2C=CC(C)(C)C(=O)C34OC(=O)CC3CC(CC(O)C(C)OC(=O)CC(O)CC3CC(OC(=O)C(C)(C)C)C(C)(C)C(O)(CC(C1)O2)O3)O4 (stereo not shown) [neristatin 1]
IC50 (P388 cell line; Mus musculus, read-out: ED50 (the source's name)): 10 µg/mL (≈ 12.6 µM) | potency compared to bryostatin 5 (P388 cell line; relative to bryostatin 5): reduced but still significant potency | stability of small samples in various solvents [1]: rapidly degraded in various solvents | Ki (protein kinase C [2]; phosphatidylserine/TRITION X-100 mixed micelles, competition for [26-3H] bryostatin 4, neristatin 1: mean±SEM, 4 experiments): 124 ± 10 nM | affinity for protein kinase C compared with bryostatin 4 (protein kinase C [2]; relative to bryostatin 4): at least two orders of magnitude less | affinity for protein kinase C compared with phorbol 12,13-dibutyrate (protein kinase C [3]; relative to phorbol 12,13-dibutyrate): an order of magnitude less | Ki (protein kinase C [3]; usual phorbol ester binding conditions, reconstitution in phosphatidylserine, neristatin 1: mean±sem, 3 experiments): 21.2 ± 1.3 nM
